Results on 5 substances are retold here after article PMC8708491 (Vaccines, 2021).

Where no end group is shown, it is not given here.

For one data set, the target named is endo-proteinase Glu-C V8 (Staphylococcus aureus, UniProt P0C1U8). The conditions noted are these: 100 mM Tris-HCl pH 7.8 (carbonate buffer in Figure 6); 0.5 mg/mL; read-out HPLC (fragment MOG37–55 at 13.55 min), MS and UPLC-MS/MS. The procedure:
This cleavage experiment aimed to identify fragment MOG37–55 by HPLC analysis. […] In particular, endo-proteinase Glu-C V8, a proteolytic serine, sequencing grade from Staphylococcus aureus V8, (Roche, lot no. 32228800) was used. This enzyme acts at the carboxylic acid of the Glu amino acid. […] The same experiment of enzymatic hydrolysis with a glutamate enzyme was also carried out with oxidized mannan–(KG)5-MOG35–55 conjugate.

A short description of data set [1]: Polarity by reversed-phase HPLC retention. It is filed as physicochemical. Conditions: chromatographic, RP-18 (C18) column, gradient 5–100% AcN in 30 min, 0.08% TFA, 214 nm. The procedure: Figure 8 HPLC analysis of peptide (KG)5-MOG35–55 (214 nm) and oxidized mannan–(KG)5-MOG35–55. HPLC analysis of (A) (KG)5-MOG35–55 and (B) oxidized mannan–(KG)5-MOG35–55 solution after 3 years (214 nm) showing the stability of the conjugate. […] The oxidized mannan–(KG)5-MOG35–55 conjugate was very polar, and it appeared at an earlier retention time compared to the less polar (KG)5-MOG35–55 peptide. The HPLC method used: gradient 5–100% AcN in 30 min.

A further data set has as its system adenocarcinoma patients. Conditions: cited from earlier work. From the text: We have shown that mannan, a poly-mannose carbohydrate isolated from the cell wall of yeast when conjugated to cancer proteins, induces Th1 or Th2 immune responses depending on the mode of conjugation and has therapeutic benefits against cancer when conjugated to peptides, proteins, and DNA. […] In addition, mannan has the added advantage, as it stimulates dendritic cells via Toll-like receptor 4. In MS, mannan conjugated to linear o ...

In data set [2] the test system is patients with secondary progressive MS. Conditions: cited from earlier work. The procedure:
The study was performed for the first time using a peptide epitope on patients with secondary progressive MS (MAESTRO-01 study).

In a further data set the test system is CD4 T cells. Conditions: cited from earlier work. The source says: The induction of immunological tolerance through the action of dendritic cells is a newly introduced strategy for the treatment of MS. Peripheral blood mononuclear cells (PBMCs) were isolated from patients with relapsing-remitting (RR-MS) and age- and sex-matched healthy individuals (controls).

Data set [3] relates to experimental autoimmune encephalomyelitis (EAE). The conditions noted are these: cited from earlier work. The source says:
Several biological studies, including in vitro and in vivo assays, have been carried out to evaluate the effects of mannan–myelin peptide conjugates. […] In another study, mannan–MOG35–55 reversed experimental autoimmune encephalomyelitis, inducing a pe ...

For data set [4] the following is noted: old lab batches kept at 5 ± 3 °C since 2014; HPLC (data not shown). The method, then: We used a Waters 2695 HPLC (Alliance) system using a photodiode array detector. A Lichrosorb RP-18 reversed-phase analytical column (C18 […], 4.6 × 50 mm PIN 186003034). […] The reaction of oxidized mannan with a (KG)5-MOG35–55 peptide was monitored by HPLC. […] The samples were kept for 3 years and assessed by HPLC for stability.
The stability of the oxidized mannan–(KG)5-MOG35–55 conjugate was analyzed after 3 years of storage.

Data set [5] relates to endo-proteinase Glu-C V8, sequencing grade from Staphylococcus aureus V8. The data set is described as follows: endo-proteinase Glu-C V8 in 100 mM Tris-HCL, pH 7.8.
Where [6] appears, read: another study, wording is the title of ref 20.
Setting [7] is: compared to EAE controls, 19 (wording matches ref 30).

endo-proteinase Glu-C V8, sequence (P0C1U8 69-336): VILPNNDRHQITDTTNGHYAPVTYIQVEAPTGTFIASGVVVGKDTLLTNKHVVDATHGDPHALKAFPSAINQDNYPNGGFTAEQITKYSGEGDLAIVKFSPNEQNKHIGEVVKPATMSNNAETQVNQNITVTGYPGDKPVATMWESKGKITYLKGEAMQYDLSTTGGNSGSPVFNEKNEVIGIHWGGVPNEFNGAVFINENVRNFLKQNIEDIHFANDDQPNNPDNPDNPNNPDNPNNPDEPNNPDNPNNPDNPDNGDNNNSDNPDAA

Turning to “(KG)5-MOG35–55: peptide MOG35–55 synthesized with (KG)5 at its N-terminus (MEVGWYRSPFSRVVHLYRNGK; N-terminal (KG)5 linker; UniProt Q61885 63-83, looked up, fragment)”, the “Cleavage by endo-proteinase Glu-C” value with endo-proteinase Glu-C V8 is listed as “cleavage of the peptide”. In addition, the “Polarity from HPLC retention time” value in data set [1] is reported as “less polar”.

For “mannan conjugated to MUC1 protein: mannan conjugated to MUC1 cancer protein, tested in humans”, the Clinical responses entry in the data set on adenocarcinoma patients (adenocarcinoma patients) was “clinical responses”. In addition, in the data set with adenocarcinoma patients (in humans), the Cancer recurrence entry is reported as “protection against cancer recurrence” and the Immune responses result is given as “induces immune responses”.

With “MBP82–98: myelin basic protein epitope peptide clinically tested in phases I, II and III (PADPGSRPHLIRLFSRD; dirucotide; UniProt P02686 82-98, looked up, fragment)”, in data set [2] (phases I, II and III), the “Safety in clinical trials” value is on record as “safe”. Also, the “Efficacy in clinical trial” value in data set [2] (secondary progressive MS, MAESTRO-01 study, trial suspended) is recorded as “lack of efficacy”.

In the case of “oxidized mannan–(KG)5-MOG35–55: MOG35–55 peptide conjugated to oxidized mannan via the (KG)5 linker at its N-terminus (KGKGKGKGKGMEVGWYRSPFSRVVHLYRNGK; also: conjugated to oxidized mannan via Schiff base on linker lysine side chains; UniProt Q61885 63-83, looked up, fragment)”, in the data set on CD4 T cells (co-cultures with tolerogenic DCs presenting the conjugate, PBMCs from RR-MS patients and healthy controls), the “Activation levels of CD4 T cells” value is on record as “Inhibition of activation”. Besides, the T-cell tolerance result with CD4 T cells (tolerogenic DCs loaded with the conjugate, generated in vitro) was “induce T-cell tolerance”. Moreover, in the data set with endo-proteinase Glu-C V8, the “Cleavage by endo-proteinase Glu-C” value was “cleavage of peptide sequence between amino acids Glu(36) and Val(37)”. For the same substance, the “Development of neurological symptoms and inflammatory demyelinating spinal cord lesions” value in data set [3] (EAE models, peptide conjugated to oxidized mannan via (KG)5, earlier study, no reference given) was “inhibit”. Moreover, in data set [3] (setting [6]), the “Axons in spinal cord lesions” value is “preserved”, the CNS inflammation entry is “reduced”, the “Effect on experimental autoimmune encephalomyelitis” value is “reversed” and the Peripheral myeloid response entry was “inducing a peripheral type 2 myeloid response”. Also, in data set [3] (setting [7]), the “Antigen-specific T-cell proliferation” value was “reduced”; the “Th1, Th17, and regulatory T-cell differentiation or T-cell apoptosis” value is recorded as “no alterations”. For the same substance, the “Protection in EAE” value in data set [3] (therapeutic and prophylactic models, 19 (no reference at the sentence; wording matches ref 30)) was “showed protection”. Moreover, in data set [1], the “Polarity from HPLC retention time” value is listed as “very polar”. Besides, in data set [4], the “Stability of the conjugate: fragmentation or detachment” value is reported as “did not show any signs of fragmentation or detachment”.

For the substance KGKGKGKGKGMEVGWYRPPFSRVVHLYRNGK, the cleaved bond result in data set [5] is recorded as “Glu36-Val37”.
